# Results: patent publication US20130122541A1, “MICROORGANISM PRODUCTION OF HIGH-VALUE CHEMICAL PRODUCTS, AND RELATED COMPOSITIONS, METHODS AND SYSTEMS” (The Regents of the University of Colorado, priority 2010, published 2013)
# Where two headings read alike, the source gives them in different places.
# Key:
# [1] = system: B. subtilis; assay: MIC evaluation of 3-HP, B. subtilis aerobic, M9 media + glutamate, 96 well-plate, 24 h (Common Methods); format: cell-based; conditions: for Avg 24 hr ΔOD600: 3HP tolerance, B. subtilis 168, M9 + glu + trp plus the named supplement(s); for % Increase Over Control: ΔOD600 with named supplement(s) vs B. subtilis 168 without supplement
# Description: (§1) For MIC evaluations, the final results are expressed in chemical agent concentrations determined by analysis of the stock solution by HPLC (i.e., see Subsection IIIb).
# (§2) The minimum inhibitory concentration (MIC) was determined aerobically in a 96 well-plate format. […] Media supplements were added according to levels reported in the Supplements Table where specified. Overnight cultures of strains were grown in triplicate in 5 mL LB (with antibiotic where appropriate). A 1% (v/v) inoculum was introduced into a 5 ml culture of M9 minimal media+glutamate.
# [2] = system: Yeast strains (S288C background); assay: microbe, parasite or virus in culture; format: cell-based, Saccharomyces cerevisiae; conditions: for MIC: Saccharomyces cerevisiae, read-out: Average MIC Assay Result (g/L 3-HP), MIC of 3-HP; for MIC / average MIC Assay Result (g/L 3-HP): S288C, SD media plus the named supplement(s); for average MIC Assay Result (g/L 3-HP): MIC of 3-HP
# Description: The minimum inhibitory concentration (MIC) was determined anaerobically in a 96 well-plate format. […] A 1% (v/v) inoculum was introduced into a 5 ml culture of SD minimal media without vitamins. After the cells reached mid-exponential phase, the culture was diluted to an OD600 of 0.200. The cells were further diluted 1:5 and a 10 μL aliquot was used to inoculate each well of a 96 well plate (˜10^4 cells per well) to total volume of 100 uL. […] Plates were incubated for 72 hours at 30 C. […] Plates were sealed in biobag anaerobic chambers that contained gas generators for anaerobic conditions and incubated for 72 hours at 30 C.
# [3] = system: Yeast strains (S288C background); assay: microbe, parasite or virus in culture; format: cell-based, Saccharomyces cerevisiae; conditions: for MIC: Saccharomyces cerevisiae, read-out: Average MIC Assay Result (g/L 3-HP), MIC of 3-HP; for MIC / average MIC Assay Result (g/L 3-HP): S288C, SD media plus the named supplement(s); for average MIC Assay Result (g/L 3-HP): MIC of 3-HP; remark: listed apart in the source
# Description: The minimum inhibitory concentration (MIC) was determined aerobically in a 96 well-plate format. […] Media supplements were added according to levels reported in the Supplements Table, where specified. Overnight cultures of strains were grown in triplicate in 5 mL SD media with vitamins (Methods in Enzymology vol. 350, page 17 (2002)). A 1% (v/v) inoculum was introduced into a 5 ml culture of SD minimal media without vitamins. After the cells reached mid-exponential phase, the culture was diluted to an OD600 of 0.200. The cells were further diluted 1:5 and a 10 μL aliquot was used to inoculate each well of a 96 well plate (˜10^4 cells per well) to total volume of 100 uL. […] Plates were incubated for 72 hours at 30 C.
# [4] = system: E. coli; assay: microbe, parasite or virus in culture; format: cell-based
# Description: as §1
# as §2, with “Table,” for “Table”, “media.” for “media+glutamate.”
# [5] = system: E. coli Mach1-T1R; assay: MIC of 3-HP, microaerobic 96 well-plate, MOPS minimal media with supplements (Example 36); format: cell-based, Escherichia coli; conditions: increase of the 3-HP MIC, 24 h
# Description: 3-HP was obtained from TCI America (Portland, Oreg.). Significant acrylic acid and 2-oxydipropionic contamination was observed via HPLC analysis. Samples were subsequently treated by diethyl ether extraction to remove acrylic acid and a portion of the 2-oxydipropionic contaminants. Samples were then neutralized with 10 M NaOH to a final pH of 7.0. […] The working stock solution was used for the selection, growth rates and MIC evaluations in this example.
# Overnight cultures of strains were grown in 5 ml LB (with antibiotic where appropriate). A 1 v/v % was used to inoculate a 15 ml conical tube filled to the top with MOPS minimal media and capped. After the cells reached mid exponential phase, the culture was diluted to an OD600 of 0.200. The cells were further diluted 1:20 and a 10 ul aliquot was used to inoculate each well (˜10^4 cells per well).
# [6] = system: E. coli; assay: microbe, parasite or virus in culture; format: cell-based; conditions: anaerobic; for % Increase Over Control: 3-HP MIC with named supplement(s) vs BW25113 in M9 without supplement; for MIC Assay Result (g/L 3-HP): MIC of 3-HP, BW25113, M9 media plus the named supplement(s), 24-hour
# Description: as §1
# as §2, with “anaerobically” for “aerobically”, “Table,” for “Table”, “media.” for “media+glutamate.”
# [7] = system: E. coli K12; assay: microbe, parasite or virus in culture; conditions: Escherichia coli, K12, 24 h, read-out: Minimum inhibitory concentration (MIC) of 3-HP for E. coli K12 in M9 minimal media supplemented with the substance
# [8] = 3-HP MIC with named supplement(s) vs S288C in SD without supplement, anaerobic
# [9] = 3-HP MIC with named supplement(s) vs S288C in SD without supplement, aerobic
# [10] = MIC of 3-HP for strain BW25113, M9 media with the named supplement(s), aerobic, 24-hour MIC evaluation
# [11] = increase of 3-HP MIC over BW25113 in M9 without supplements, M9 media with the named supplement(s), aerobic
compound,measurement,setting,value
CSCC[C@H](N)C(=O)O [Methionine],Avg 24 hr ΔOD600,[1],0.15
same,% Increase Over Control,[1],282%
N[C@@H](Cc1c[nH]c2ccccc12)C(=O)O [Tryptophan (A)],% Increase Over Control,[2]; [8],47%
same,MIC,[2]; anaerobic,55 g/L
same,% Increase Over Control,[3]; [9],20%
same,MIC,[3]; aerobic,54 g/L
CC[C@H](C)[C@H](N)C(=O)O [Isoleucine (B)],% Increase Over Control,[2]; [8],2%
same,average MIC Assay Result (g/L 3-HP),[2]; anaerobic,38 g/L
same,average MIC Assay Result (g/L 3-HP),[4]; [10],32 g/L 3-HP
same,% Increase Over Control,[4]; [11],17%
NNC(=O)c1ccc(O)cc1 [p-hydroxybenzoic acid hydrazide],MIC increase resulting from supplementation,[5],33%
O=C(O)C1=C[C@@H](O)[C@@H](O)[C@H](O)C1 [Shikimate (A)],% Increase Over Control,[2]; [8],60%
same,average MIC Assay Result (g/L 3-HP),[2]; anaerobic,60 g/L
same,average MIC Assay Result (g/L 3-HP),[4]; [10],28 g/L 3-HP
same,% Increase Over Control,[4]; [11],3%
same,% Increase Over Control,[3]; [9],78%
same,average MIC Assay Result (g/L 3-HP),[3]; aerobic,80 g/L
NC(=O)NCCC[C@H](N)C(=O)O [Citrulline (C)],% Increase Over Control,[2]; [8],158%
same,average MIC Assay Result (g/L 3-HP),[2]; anaerobic,97 g/L
same,average MIC Assay Result (g/L 3-HP),[4]; [10],30 g/L 3-HP
same,% Increase Over Control,[4]; [11],9%
same,% Increase Over Control,[3]; [9],28%
same,average MIC Assay Result (g/L 3-HP),[3]; aerobic,58 g/L
Nc1nc(=O)c2c([nH]1)NC[C@@H](CNc1ccc(C(=O)N[C@@H](CCC(=O)O)C(=O)O)cc1)N2 [Tetrahydrofolate (A)],average MIC Assay Result (g/L 3-HP),[4]; [10],30 g/L 3-HP
same,% Increase Over Control,[4]; [11],9%
same,% Increase Over Control,[6],33%
same,MIC Assay Result (g/L 3-HP),[6],40.0 g/L
N[C@@H](CO)C(=O)O [Serine (B)],% Increase Over Control,[2]; [8],20%
same,average MIC Assay Result (g/L 3-HP),[2]; anaerobic,45 g/L
same,average MIC Assay Result (g/L 3-HP),[4]; [10],32 g/L 3-HP
same,% Increase Over Control,[4]; [11],17%
same,% Increase Over Control,[6],7%
same,MIC Assay Result (g/L 3-HP),[6],32.1 g/L
NCCCCN [Putrescine(C)],% Increase Over Control,[2],56%
same,% Increase Over Control,[3],22%
O=C(O)CC(O)(CC(=O)O)C(=O)O [Citrate],Avg 24 hr ΔOD600,[1],0.30
same,% Increase Over Control,[1],674%
Cc1ncc(CO)c(CO)c1O.Cl [pyridoxine hydrochloride],MIC increase resulting from supplementation,[5],0%
N[C@@H](Cc1ccc(O)cc1)C(=O)O [tyrosine],MIC increase resulting from supplementation,[5],40%
NCCCCN [putrescine],MIC,[7],40 mg/mL
CSCC[C@H](N)C(=O)O [Methionine (B)],% Increase Over Control,[2],167%
same,% Increase Over Control,[4],36%
same,average MIC Assay Result (g/L 3-HP),[4],38 g/L 3-HP
same,% Increase Over Control,[3],59%
C[C@@H](O)[C@H](N)C(=O)O [threonine],MIC increase resulting from supplementation,[5],3%
N[C@@H](CC(=O)O)C(=O)O [Aspartate],% Increase Over Control,[3]; [9],26%
same,MIC,[3]; aerobic,57 g/L
N[C@@H](CCO)C(=O)O [Homoserine (B)],average MIC Assay Result (g/L 3-HP),[4]; [10],35 g/L 3-HP
NC(CCS)C(=O)O (stereo not shown) [Homocysteine (B)],% Increase Over Control,[2]; [8],7%
same,average MIC Assay Result (g/L 3-HP),[2]; anaerobic,40 g/L
same,average MIC Assay Result (g/L 3-HP),[4]; [10],30 g/L 3-HP
same,% Increase Over Control,[4]; [11],9%
N[C@@H](Cc1ccccc1)C(=O)O [phenylalanine],MIC increase resulting from supplementation,[5],33%
NCCCCNCCCN [spermidine],Avg 24 hr ΔOD600,[1],0.09
same,% Increase Over Control,[1],140%
same,MIC,[7],40 mg/mL
N[C@@H](Cc1ccccc1)C(=O)O [Phenylalanine (A)],% Increase Over Control,[2]; [8],2%
same,MIC,[2]; anaerobic,38 g/L
same,average MIC Assay Result (g/L 3-HP),[4]; [10],32 g/L 3-HP
same,% Increase Over Control,[4]; [11],17%
NC(=O)CC[C@H](N)C(=O)O [Glutamine (C)],average MIC Assay Result (g/L 3-HP),[4]; [10],30 g/L 3-HP
same,% Increase Over Control,[4]; [11],9%
NCCCCNCCCN [Spermidine (C)],% Increase Over Control,[2]; [8],60%
same,MIC,[2]; anaerobic,60 g/L
same,average MIC Assay Result (g/L 3-HP),[4]; [10],40 g/L 3-HP
N[C@@H](Cc1c[nH]c2ccccc12)C(=O)O [tryptophan],MIC increase resulting from supplementation,[5],33%
NCCC[C@H](N)C(=O)O [Ornithine (C)],average MIC Assay Result (g/L 3-HP),[4]; [10],30 g/L 3-HP
same,% Increase Over Control,[4]; [11],9%
NCCCC[C@H](N)C(=O)O [Lysine (D)],% Increase Over Control,[2]; [8],20%
same,average MIC Assay Result (g/L 3-HP),[2]; anaerobic,45 g/L
same,average MIC Assay Result (g/L 3-HP),[4]; [10],37 g/L 3-HP
same,% Increase Over Control,[4]; [11],33%
same,% Increase Over Control,[6],39%
same,MIC Assay Result (g/L 3-HP),[6],41.7 g/L
CCC(=O)C(=O)O [2-oxobutyrate (B)],% Increase Over Control,[2]; [8],2%
same,average MIC Assay Result (g/L 3-HP),[2]; anaerobic,38 g/L
same,% Increase Over Control,[3]; [9],11%
same,average MIC Assay Result (g/L 3-HP),[3]; aerobic,50 g/L
O=C(O)O [Bicarbonate],Avg 24 hr ΔOD600,[1],0.06
same,% Increase Over Control,[1],56%
Nc1ccc(C(=O)O)cc1 [p-aminobenzoate (A)],average MIC Assay Result (g/L 3-HP),[4]; [10],35 g/L 3-HP
same,% Increase Over Control,[4]; [11],27%
same,% Increase Over Control,[6],33%
same,MIC Assay Result (g/L 3-HP),[6],40.0 g/L
"O=C(O)c1cccc(O)c1O [2,3-didyroxybenzoic acid, 2,3-dihydroxybenzoic acid]",MIC increase resulting from supplementation,[5],33%
N[C@@H](CCO)C(=O)O [homoserine],MIC increase resulting from supplementation,[5],33%
Nc1ccc(C(=O)O)cc1 [p-aminobenzoic acid],MIC increase resulting from supplementation,[5],7%
NCCCCN [Putrescine (C)],average MIC Assay Result (g/L 3-HP),[4],30 g/L 3-HP
NCC(=O)O [Glycine (B)],% Increase Over Control,[2]; [8],60%
same,average MIC Assay Result (g/L 3-HP),[2]; anaerobic,60 g/L
same,% Increase Over Control,[4],3%
same,average MIC Assay Result (g/L 3-HP),[4],28 g/L 3-HP
same,% Increase Over Control,[3]; [9],11%
same,average MIC Assay Result (g/L 3-HP),[3]; aerobic,50 g/L
Nc1ccc(C(=O)O)cc1 [p-aminobenzoate],Avg 24 hr ΔOD600,[1],0.07
same,% Increase Over Control,[1],89%
O=C(O)O [Bicarbonate (C)],% Increase Over Control,[2]; [8],140%
same,average MIC Assay Result (g/L 3-HP),[2]; anaerobic,90 g/L
same,average MIC Assay Result (g/L 3-HP),[4]; [10],44 g/L 3-HP
same,% Increase Over Control,[4]; [11],59%
NCCCCCN [Cadaverine (C)],% Increase Over Control,[2]; [8],60%
same,MIC,[2]; anaerobic,60 g/L
same,average MIC Assay Result (g/L 3-HP),[4]; [10],35 g/L 3-HP
Cl.NC1CCSC1=O (stereo not shown) [homocysteine thiolactone hydrochloride],MIC increase resulting from supplementation,[5],60%
CCC(=O)C(=O)O [oxobutanoate],MIC increase resulting from supplementation,[5],7%
NCCCCCN [cadaverine],MIC,[7],30 mg/mL
C[C@@H](O)[C@H](N)C(=O)O [Threonine (B)],% Increase Over Control,[2]; [8],2%
same,MIC,[2]; anaerobic,38 g/L
same,average MIC Assay Result (g/L 3-HP),[4]; [10],32 g/L 3-HP
